Data reported in patent US20250032623A1, “HETEROBIFUNCTIONAL COMPOUNDS AND THEIR USE IN TREATING DISEASE” (HALDA THERAPEUTICS OPCO, INC., priority 2021, published 2025).

Assays:
HeLa cells = experiment: Cellular growth inhibition assay (CellTiter-Glo), HeLa cells; assay type: cell-based; details: Homo sapiens, 72 h, three days compound treatment, CellTiter-Glo 2.0, read-out: CTG HELA GI50
Method in brief: (§1)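 GI50 derived by four-parameter regression of luminescence (CellTiter-Glo 2.0) at Day 0 and Day 3, normalized to DMSO wells. Cells (HeLa, HEK293; 500/well, DMEM plus 10% FBS) were dosed with compound dilutions 24 h post-seeding and exposed for three days at 37 °C.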

HEK293 cells = experiment: Cellular growth inhibition assay (CellTiter-Glo), HEK293 cells; assay type: cell-based; details: Homo sapiens, 72 h, three days compound treatment, CellTiter-Glo 2.0, read-out: CTG HEK293 GI50
Method in brief: as §1

KRAS G12C = molecular target: T1, KRAS G12C (Homo sapiens, UniProt P01116, G12C); experiment: KRAS G12C nucleotide exchange assay (SOS1 mediated, HTRF); assay type: biochemical; details: 1 hr pre-incubation at RT, read-out: IC50 (inhibition of KRas G12C)
T1 construct: Kras (aa 2-169), GST; purchased Reaction Biology Corporation (RBC)
T1 sequence (P01116 2-169 isoform P01116-2 G12C): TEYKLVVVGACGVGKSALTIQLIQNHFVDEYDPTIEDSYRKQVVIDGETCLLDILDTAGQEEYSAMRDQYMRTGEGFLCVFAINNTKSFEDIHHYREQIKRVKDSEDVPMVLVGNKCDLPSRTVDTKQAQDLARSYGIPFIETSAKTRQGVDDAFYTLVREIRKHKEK
Method in brief: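 HTRF nucleotide exchange using KRAS G12C mixed with anti-GST Tb antibody and pre-incubated with compound for 1 h at RT. Exchange was started with SOS1 plus labelled GTP. Compounds ran as 10-point, 3-fold dilutions from 10 μM, with no-SOS1 or top concentration as blank and IC50 from a variable-slope sigmoidal fit.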

| SMILES | GI50 (HeLa cells) [nM] | GI50 (HEK293 cells) [nM] | IC50 (KRAS G12C) [nM] |
| --- | --- | --- | --- |
| CC[C@@H]1C(=O)N(C)c2cnc(Nc3ccc(C(=O)NCCOCCOCCN(C)C/C=C/C(=O)N4CCN(c5nc(OC[C@@H]6CCCN6C)nc6c5CCN(c5cccc7cccc(Cl)c57)C6)C[C@@H]4CC#N)cc3OC)nc2N1C1CCCC1 [Compound I-107, N-[2-[2-[2-[[(E)-4-[(2S)-4-[7-(8-chloro-1-naphthyl)-2-[[(2S)-1-methylpyrrolidin-2-yl]methoxy]-6,8-dihydro-SH-pyrido[3,4-d]pyrimidin-4-yl]-2-(cyanomethyl)piperazin-1-yl]-4-oxo-but-2-enyl]-methyl-amino]ethoxy]ethoxy]ethyl]-4-[[(7R)-8-cyclopentyl-7-ethyl-5-methyl-6-oxo-7H-pteridin-2-yl]amino]-3-methoxy-benzamide] | < 500 | < 500 | < 100 |
| C=C(F)C(=O)N1CCN(c2nc(OC[C@@H]3CCCN3CCCOCCOCCN(C)C(=O)N3N=C(c4cc(F)ccc4F)SC3(CCCN)c3ccccc3)nc3c2CCN(c2cccc4cccc(Cl)c24)C3)C[C@@H]1CC#N (stereo partly drawn) [Compound I-99, 2-(3-aminopropyl)-N-[2-[2-[3-[(2S)-2-[[7-(8-chloro-1-naphthyl)-4-[(3S)-3-(cyanomethyl)-4-(2-fluoroprop-2-enoyl)piperazin-1-yl]-6,8-dihydro-5H-pyrido[3,4-d]pyrimidin-2-yl]oxymethyl]pyrrolidin-1-yl]propoxy]ethoxy]ethyl]-5-(2,5-difluorophenyl)-N-methyl-2-phenyl-1,3,4-thiadiazole-3-carboxamide] | 500 to 1500 | 1500 to 5000 | < 100 |
| CCc1cnn2c(NCc3ccc(OCCOCCOCCOCCOCCOCCOCCOC/C=C/C(=O)N4CCN(c5nc(OC[C@@H]6CCCN6C)nc6c5CCN(c5cccc7cccc(Cl)c57)C6)C[C@@H]4CC#N)nc3)cc(N3CCCC[C@H]3CCO)nc12 [Compound I-95] | > 5000 | 1500 to 5000 | 1000 to 5000 |
| CC[C@@H]1C(=O)N(C)c2cnc(Nc3ccc(C(=O)NCCOCCOC4CCN(C/C=C/C(=O)N5CCN(c6nc(OC[C@@H]7CCCN7C)nc7c6CCN(c6cccc8cccc(Cl)c68)C7)C[C@@H]5CC#N)CC4)cc3OC)nc2N1C1CCCC1 [Compound I-110, N-[2-[2-[[1-[(E)-4-[(2S)-4-[7-(8-chloro-1-naphthyl)-2-[[(2S)-1-methylpyrrolidin-2-yl]methoxy]-6,8-dihydro-5H-pyrido[3,4-d]pyrimidin-4-yl]-2-(cyanomethyl)piperazin-1-yl]-4-oxo-but-2-enyl]-4-piperidyl]oxy]ethoxy]ethyl]-4-[[(7R)-8-cyclopentyl-7-ethyl-5-methyl-6-oxo-7H-pteridin-2-yl]amino]-3-methoxy-benzamide] | 500 to 1500 | 500 to 1500 | < 100 |
| C=C(F)C(=O)N1CCN(c2nc(OC[C@@H]3CCCN3CCCOCCOCCOc3ccc(CNc4cc(N5CCCC[C@H]5CCO)nc5c(CC)cnn45)cn3)nc3c2CCN(c2cccc4cccc(Cl)c24)C3)C[C@@H]1CC#N [Compound I-88, 2-[(2S)-4-[7-(8-chloro-1-naphthyl)-2-[[(2S)-1-[3-[2-[2-S[[5-[[[3-ethyl-5-[(2S)-2-(2-hydroxyethyl)-1-piperidyl]pyrazolo[1,5-a]pyrimidin-7-yl]amino]methyl]-2-pyridyl]oxy]ethoxy]ethoxy]propyl]pyrrolidin-2-yl]methoxy]-6,8-dihydro-5H-pyrido[3,4-d]pyrimidin-4-yl]-1-(2-fluoroprop-2-enoyl)piperazin-2-yl]acetonitrile] | 500 to 1500 | 500 to 1500 | < 100 |
| CC[C@@H]1C(=O)N(C)c2cnc(Nc3ccc(C(=O)NCCOCCN4CCN(C/C=C/C(=O)N5CCN(c6nc(OC[C@@H]7CCCN7C)nc7c6CCN(c6cccc8cccc(Cl)c68)C7)C[C@@H]5CC#N)CC4)cc3OC)nc2N1C1CCCC1 [Compound I-82] | < 500 | < 500 | < 100 |
